Assay results reported in US5319099A, “3-benzylidene-1-carbamoyl-2-pyrrolidone compounds useful as antiinflammatory agents” (Shionogi Seiyaku Kabushiki Kaisha, priority 1991, dated 1994).
Read-outs that look alike come from different tables or passages of the source.

Key:
[1] = tested on: PGE2 production from rat synovia cells (Rat SVC); assay: Inhibitory Activity on PGE2 Production from Rat Synovia Cells; type: cell-based, rat (LEW/Crj); details: human IL-1 β 30 U/ml, 15 hours, RIA
Method: Inhibitory Activity on PGE2 Production from Rat Synovia Cells
LEW/Crj rats (male, 300-350 g weight) were subjected to synovectomy. The isolated synovia cells were subcultivated under a certain condition up to a well amount of cells for the experiment. The cells were dispensed to each well of a 96-well microtiter plate at a concentration of 4×10^3 /160 μl/well and then cultivated for 72 hours in a CO2 incubator. Serial dilutions (20 μl each) of a test compound and human IL-1 β(final concentration: 30 U/ml) were added to the wells and incubated for 15 hours in a Co2 incubator. After the incubation, the supernatant was collected from each well and stored at -80° C. until PGE2 assay. […]

[2] = tested on: LTB4 production from rat peritoneal cells (Rat PEC); assay: Inhibitory Activity on LTB4 Production from Rat Peritoneal Cells; type: cell-based, rat (Jcl-SD); details: 0.25 h, Ca-ionophore A23187 1 μM, 15 min, RIA
Method: Inhibitory Activity on LTB4 Production from Rat Peritoneal Cells
To each male Jcl-SD rat (300-350 g weight) was intraperitoneally administered 10 ml of Hanks' solution containing 0.1% bovine serum albumin (hereinafter referred to as BSA) and 25 U/ml of heparin. Then the ascites were collected and centrifuged (1500 rpm×5 min., at 4° C.). The resulting cell fraction (precipitation) was suspended and adjusted at […] with Hanks' solution containing 0.1% BSA. The thus obtained suspension (800 μl, 8×10^5 cells) was dispensed into polypropylene tubes and incubated at 37° C. 10 min, and successively for 10 min. after addition of serial dilutions (100 μl each) of a test sample. Next, 100 μl of Ca-ionophore A23187 (final concentration: 1 μM) was added to the resulting suspension and allowed to stand for 15 min, then the mixture was ice-cooled to terminate the reaction. The reaction mixtures were centrifuged (3000 rpm×5 min., at 4° C.) to give supernatants, which were collected and stored at -80° C. until LTB4 assay. After thawed, the LTB4 assay was performed by RIA using ^3 H--LTB4.

[3] = tested on: IL-1 production in THP-1 cells; assay: Inhibitory Activity on IL-1 Production caused by The Stimulation of LPS in THP-1 Cells; type: cell-based; details: Homo sapiens, read-out: IC50 THP-1 IL-1
Method: Serial dilutions (100 μl each) of a test compound and LPS (final concentration: 10 μg/ml) were further added to each well and the plate was kept at 37° C. for 24 hours. Then, the supernatant was collected from each well and centrifuged (3000 rpm×10 min.). […]

[4] = tested on: Carrageenin-Induced Paw Edema of Rat; assay: Inhibitory Activity on Carrageenin-Induced Paw-Edema of Rat; type: in vivo, rat (LEW/Crj); details: oral 1 hour before carrageenin, inhibitory rate 3 or 4 hours after carrageenin, read-out: ED30 Inhibitory Activities to Carrageenin-Induced Paw Edema of Rat
Method: Inhibitory Activity on Carrageenin-Induced Paw-Edema of Rat
Namely, male LEW/Crj rats (6-week-old, 140-170 g weight) fasted for 24 hours were used (7 to 8 rats per group).
A solution (0.1 ml) containing 1% λ-carrageenin (PICININ-A, Zushikagaku) was injected into the subplantar tissue of the right hind paw of each rat orally administered a test compound before 1 hour, to induce edema. The paw volume was calculated plethysmographically before and after the injection at an interval of 1 hour until 5 hours later. The inhibitory rate of the drug-administered group was calculated, with the vehicle group as the reference, to determine the efficacy of the test compounds by Dunnett-t assay. The anti-edema activity was indicated as ED30 calculated, by regression analysis method, based on the inhibitory rate shown 3 or 4 hours later after the administration of carrageenin.

[5] = tested on: Tunica Mucosa Ventriculi of rat (stomach); assay: Inducing Activities on Injury at Tunica Mucosa of Rat (stomach); type: in vivo, rat (LEW/Crj); details: oral, 6 hours
Method: Inducing Activities on Injury at Tunica Mucosa of Rat
Sixs LEW/Crj male rats (six week old, 140-160 g weight) were used per one group. A drug was orally administered to each rat fasted for 24 hours, then six hours later each rat were bled to death under anesthesia of ether. From each rat was taken out the stomach, in which about 6 ml of physiological saline was filled, then the stomach was steeped in 1% formalin solution for 15 min. The stomach was incised along with curvatura ventriculi major and observed with an actual-microscope to see the injured condition thereof, then the number of rats injuried at stomach and the length of hemorrhage macula were determined. The degree of the injury was shown as Lesion index (mm) which was the cumulative value of the length of hemorrhage macula in each administered group.

[6] = THP-1 cells, LPS 10 μg/ml, 24 hours, RIA of IL-1 β

Row | Structure (SMILES) | IC50 [1] [nM] | IC50 [2] [nM] | IC50 [3, 6] [nM] | ED30 [4] [mg/kg] | Injury at Tunica Mucosa Ventriculi, Degree of Injury (Lesion index) ([5]; 10 mg/kg) [mm] | Injury at Tunica Mucosa Ventriculi, Number Occurrence/Sample ([5]; 10 mg/kg) | Injury at Tunica Mucosa Ventriculi, Degree of Injury (Lesion index) ([5]; 100 mg/kg) [mm] | Injury at Tunica Mucosa Ventriculi, Number Occurrence/Sample ([5]; 100 mg/kg) | Injury at Tunica Mucosa Ventriculi, Degree of Injury (Lesion index) ([5]; 200 mg/kg) [mm] | Injury at Tunica Mucosa Ventriculi, Number Occurrence/Sample ([5]; 200 mg/kg) | IC50 ([3]; THP-1, 24 h) [nM] | Injury at Tunica Mucosa Ventriculi, Degree of Injury (Lesion index) ([5]; 3 mg/kg) [mm] | Injury at Tunica Mucosa Ventriculi, Number Occurrence/Sample ([5]; 3 mg/kg) | Injury at Tunica Mucosa Ventriculi, Degree of Injury (Lesion index) ([5]; 30 mg/kg) [mm] | Injury at Tunica Mucosa Ventriculi, Number Occurrence/Sample ([5]; 30 mg/kg) | Injury at Tunica Mucosa Ventriculi, Degree of Injury (Lesion index) ([5]; 400 mg/kg) [mm] | Injury at Tunica Mucosa Ventriculi, Number Occurrence/Sample ([5]; 400 mg/kg)
1 | CC(C)(C)c1cc(C=C2CCN(C(N)=O)C2=O)cc(C(C)(C)C)c1O [Ia-1, N-carbamoyl-3-(3,5-di-tert-butyl-4-hydroxybenzylidene)pyrrolidin-2-one] | 400 | 4000 | 20000 | 18 | 0 ± 0 | 0/6 | 0 ± 0 | 0/6 | 0 ± 0 | 0/6 | – | – | – | – | – | – | –
2 | CON1CCC(=Cc2cc(C(C)(C)C)c(O)c(C(C)(C)C)c2)C1=O [Reference Compound, N-methoxy-3-(3,5-di-tert-butyl-4-hydroxybenzylidene)-2-pyrrolidone, reference compound] | 5 | 6000 | – | 3 | 7.2 ± 1.2 | 6/6 | – | – | – | – | > 100000 | 4.5 ± 1.3 | 6/6 | 11.2 ± 2.2 | 6/6 | – | –
3 | CN(O)C(=O)N1CCC(=Cc2cc(C(C)(C)C)c(O)c(C(C)(C)C)c2)C1=O [Ia-6, N-(N-hydroxy-N-methylcarbamoyl)-3-(3,5-di-tert-butyl-4-hydroxybenzylidene)pyrrolidin-2-one] | 9 | 3000 | 34000 | 9 | 0 ± 0 | 0/6 | 1.0 ± 0.5 | 3/6 | – | – | – | – | – | 0.6 ± 0.5 | 3/6 | – | –
4 | CC(C)(C)c1cc(C=C2CCN(C(=O)NO)C2=O)cc(C(C)(C)C)c1O [Ia-4, N-(N-hydroxycarbamoyl)-3-(3,5-di-tert-butyl-4-hydroxybenzylidene)pyrrolidin-2-one] | 200 | 3000 | 25000 | 16 | – | – | 0 ± 0 | 0/8 | 0 ± 0 | 0/8 | – | – | – | – | – | 0.2 ± 0.1 | 3/8
